# According to patent publication US20260231939A1, “ARTHROPOD CONTROL COMPOSITIONS” (Firmenich SA, priority 2022, published 2026):
# Like-named read-outs stand apart in the source and are kept apart here.
# Tested on: Aedes aegypti
# Test: Warm Body assay, mosquito landings on the baited warm body
# Assay type: in vivo
# Details: for mosquitoes that still land on the warm body: 10 mg/mL (1 mg absolute applied); for pest or weed control at 16 µg/mL / pest or weed control at 400 µg/mL / pest or weed control at 10000 µg/mL: Aedes aegypti, read-out: Percentage of repellence of mosquitoes landing on the warm body
# Description: The controlling effect according to the present invention was assessed using an adapted Warm Body assay as defined in Kröber T, Kessler S, Frei J, Bourquin M, Guerin P M. 2010. J Am Mosq Control Assoc. 26:381-386. In this in-vitro assay the number of mosquito landing on a warm body, simulating an attractive host treated with the tested stimuli, was measured in order to assess the repellence effect.
# The published protocol has been adapted as the switch from Anopheles gambiae to Ae. aegypti led to a decrease of mosquitoes placed in the tested cage due to the size difference (i.e. 30 mosquitoes instead of 50) and to an increase of lighting since Ae. aegypti is a diurnal mosquitoes (i.e. 150 lux instead of 4 lux).
# On the sandblasted glass Petri dish covering the warm body (28.3 cm^2), 100 μL of the compounds diluted at different concentrations in ethanol was applied. The number of mosquito landing on the warm body was counted for each stimulus. Number of landings on pure ethanol (solvent) control treatment was used to normalize the data and calculate the percentage of repellence.
# [1] = more complex lactones (types A, B, C), 0.016 mg/mL
# [2] = more complex lactones (types A, B, C), 0.4 mg/mL
# [3] = more complex lactones (types A, B, C), 10 mg/mL
# [4] = γ-lactones, 0.016 mg/mL in ethanol
# [5] = γ-lactones, 0.4 mg/mL in ethanol
# [6] = γ-lactones, 10 mg/mL in ethanol
compound,measurement,setting,value
C=CC1CCCC(=O)O1 (stereo not drawn) [6-ethenyloxan-2-one],mosquitoes that still land on the warm body,,prevents any mosquito from landing
same,pest or weed control at 16 µg/mL,"δ-lactones, 0.016 mg/mL",31%
same,pest or weed control at 400 µg/mL,"δ-lactones, 0.4 mg/mL",30%
same,pest or weed control at 10000 µg/mL,"δ-lactones, 10 mg/mL",100%
CCC1CCCC(=O)O1 (stereo not drawn) [6-ethyloxan-2-one],mosquitoes that still land on the warm body,,> 50%
same,pest or weed control at 16 µg/mL,"δ-lactones, 0.016 mg/mL",0%
same,pest or weed control at 400 µg/mL,"δ-lactones, 0.4 mg/mL",11%
same,pest or weed control at 10000 µg/mL,"δ-lactones, 10 mg/mL",48%
"CCCCCCC1=COC(=O)CC1 [5-hexyl-3,4-dihydro-2H-pyran-2-one]",pest or weed control at 16 µg/mL,[1],11%
same,pest or weed control at 400 µg/mL,[2],75%
same,pest or weed control at 10000 µg/mL,[3],98%
"CC(C)C1OC(=O)C1(C)C (stereo not drawn) [3,3-dimethyl-4-propan-2-yloxetan-2-one]",pest or weed control at 16 µg/mL,"β- and ε-lactones, 0.016 mg/mL",36%
same,pest or weed control at 400 µg/mL,"β- and ε-lactones, 0.4 mg/mL",< 40%
same,pest or weed control at 10000 µg/mL,"β- and ε-lactones, 10 mg/mL",100%
CCCCCC1OC(=O)CC1C (stereo not drawn) [4-methyl-5-pentyloxolan-2-one],pest or weed control at 16 µg/mL,[1],36%
same,pest or weed control at 400 µg/mL,[2],72%
same,pest or weed control at 10000 µg/mL,[3],100%
CC=CCCCCCC1CCC(=O)O1 (stereo not drawn) [5-oct-6-enyloxolan-2-one],pest or weed control at 16 µg/mL,[4],12%
same,pest or weed control at 400 µg/mL,[5],78%
same,pest or weed control at 10000 µg/mL,[6],100%
"CC/C=C\CC/C=C/C1CCC(=O)O1 (stereo not drawn) [5-[(1E,5Z)-octa-1,5-dienyl]oxolan-2-one]",pest or weed control at 16 µg/mL,[4],52%
same,pest or weed control at 400 µg/mL,[5],65%
same,pest or weed control at 10000 µg/mL,[6],97%
O=C1CCCCC(C2CCCCC2)O1 (stereo not drawn) [7-cyclohexyloxepan-2-one],pest or weed control at 16 µg/mL,"β- and ε-lactones, 0.016 mg/mL",0%
same,pest or weed control at 400 µg/mL,"β- and ε-lactones, 0.4 mg/mL",10%
same,pest or weed control at 10000 µg/mL,"β- and ε-lactones, 10 mg/mL",26%
"CCCCCC1=COC(=O)CC1 [5-pentyl-3,4-dihydro-2H-pyran-2-one]",pest or weed control at 16 µg/mL,[1],60%
same,pest or weed control at 400 µg/mL,[2],69%
same,pest or weed control at 10000 µg/mL,[3],97%
"C=C/C=C/C1C(=O)OC1CCCCC (stereo not drawn) [(E)-3-buta-1,3-dienyl-4-pentyloxetan-2-one]",pest or weed control at 16 µg/mL,"β- and ε-lactones, 0.016 mg/mL",71%
same,pest or weed control at 400 µg/mL,"β- and ε-lactones, 0.4 mg/mL",82%
same,pest or weed control at 10000 µg/mL,"β- and ε-lactones, 10 mg/mL",100%
CC=CCCC1CCC(=O)O1 (stereo not drawn) [5-pent-3-enyloxolan-2-one],pest or weed control at 16 µg/mL,[4],0%
same,pest or weed control at 400 µg/mL,[5],95%
same,pest or weed control at 10000 µg/mL,[6],100%
C=CCCC1CCCCC(=O)O1 (stereo not drawn) [7-but-3-enyloxepan-2-one],pest or weed control at 16 µg/mL,"β- and ε-lactones, 0.016 mg/mL",43%
same,pest or weed control at 400 µg/mL,"β- and ε-lactones, 0.4 mg/mL",75%
same,pest or weed control at 10000 µg/mL,"β- and ε-lactones, 10 mg/mL",99%
CC1CCC(=O)O1 (stereo not drawn) [5-methyloxolan-2-one],pest or weed control at 16 µg/mL,[4],0%
same,pest or weed control at 400 µg/mL,[5],43%
same,pest or weed control at 10000 µg/mL,[6],2%
CCCCCC1CCC(=O)O1 (stereo not drawn) [5-pentyloxolan-2-one],pest or weed control at 16 µg/mL,[4],9%
same,pest or weed control at 400 µg/mL,[5],56%
same,pest or weed control at 10000 µg/mL,[6],99%
CCCCCCC1(C)CCC(=O)O1 (stereo not drawn) [5-hexyl-5-methyloxolan-2-one],pest or weed control at 16 µg/mL,[1],43%
same,pest or weed control at 400 µg/mL,[2],75%
same,pest or weed control at 10000 µg/mL,[3],97%
CCCCCCCCCCC1CCC(=O)O1 (stereo not drawn) [5-decyloxolan-2-one],pest or weed control at 16 µg/mL,[4],2%
same,pest or weed control at 400 µg/mL,[5],14%
same,pest or weed control at 10000 µg/mL,[6],60%
CCC1CCC(=O)O1 (stereo not drawn) [5-ethyloxolan-2-one],pest or weed control at 16 µg/mL,[4],0%
same,pest or weed control at 400 µg/mL,[5],16%
same,pest or weed control at 10000 µg/mL,[6],74%
CCCCC=CCCC1CCC(=O)O1 (stereo not drawn) [5-oct-3-enyloxolan-2-one],pest or weed control at 16 µg/mL,[4],31%
same,pest or weed control at 400 µg/mL,[5],76%
same,pest or weed control at 10000 µg/mL,[6],92%
O=C1CCC2(CCCCC2)O1 [1-oxaspiro[4.5]decan-2-one],pest or weed control at 16 µg/mL,[1],54%
same,pest or weed control at 400 µg/mL,[2],79%
same,pest or weed control at 10000 µg/mL,[3],100%
CC(C)(C)C1CCCCC(=O)O1 (stereo not drawn) [7-tert-butyloxepan-2-one],pest or weed control at 16 µg/mL,"β- and ε-lactones, 0.016 mg/mL",0%
same,pest or weed control at 400 µg/mL,"β- and ε-lactones, 0.4 mg/mL",0%
same,pest or weed control at 10000 µg/mL,"β- and ε-lactones, 10 mg/mL",66%
"CC1(C)CC=CC2(C)OC(=O)CC12 (stereo not drawn) [4,4,7a-trimethyl-3a,5-dihydro-3H-1-benzofuran-2-one]",pest or weed control at 16 µg/mL,[1],83%
same,pest or weed control at 400 µg/mL,[2],92%
same,pest or weed control at 10000 µg/mL,[3],100%
CCC=CC[C@@H]1CCCC(=O)O1 [(6S)-6-pent-2-enyloxan-2-one],pest or weed control at 16 µg/mL,"δ-lactones, 0.016 mg/mL",73%
same,pest or weed control at 400 µg/mL,"δ-lactones, 0.4 mg/mL",96%
same,pest or weed control at 10000 µg/mL,"δ-lactones, 10 mg/mL",96%
CCC=C1OC(=O)c2ccccc21 [3-propylidene-2-benzofuran-1-one],pest or weed control at 16 µg/mL,[1],83%
same,pest or weed control at 400 µg/mL,[2],93%
same,pest or weed control at 10000 µg/mL,[3],86%
CCCCCCC=CC1CCC(=O)O1 (stereo not drawn) [5-oct-1-enyloxolan-2-one],pest or weed control at 16 µg/mL,[4],0%
same,pest or weed control at 400 µg/mL,[5],60%
same,pest or weed control at 10000 µg/mL,[6],98%
CCCCCC1CCCC(=O)O1 (stereo not drawn) [6-pentyloxan-2-one],pest or weed control at 16 µg/mL,"δ-lactones, 0.016 mg/mL",0%
same,pest or weed control at 400 µg/mL,"δ-lactones, 0.4 mg/mL",91%
same,pest or weed control at 10000 µg/mL,"δ-lactones, 10 mg/mL",98%
CCCCCCC1CCCC(=O)O1 (stereo not drawn) [6-hexyloxan-2-one],pest or weed control at 16 µg/mL,"δ-lactones, 0.016 mg/mL",0%
same,pest or weed control at 400 µg/mL,"δ-lactones, 0.4 mg/mL",76%
same,pest or weed control at 10000 µg/mL,"δ-lactones, 10 mg/mL",91%
C=CCCCC1CCCCC(=O)O1 (stereo not drawn) [7-pent-4-enyloxepan-2-one],pest or weed control at 400 µg/mL,"β- and ε-lactones, 0.4 mg/mL",95%
same,pest or weed control at 10000 µg/mL,"β- and ε-lactones, 10 mg/mL",100%
same,Percentage of repellence of mosquitoes landing on the warm body,"β- and ε-lactones, 0.4 mg/mL",95%
C=CCCCCCCC1CCC(=O)O1 (stereo not drawn) [5-oct-7-enyloxolan-2-one],pest or weed control at 16 µg/mL,[4],46%
same,pest or weed control at 400 µg/mL,[5],69%
same,pest or weed control at 10000 µg/mL,[6],80%
CCCCCCCCC1CCC(=O)O1 (stereo not drawn) [5-octyloxolan-2-one],pest or weed control at 16 µg/mL,[4],12%
same,pest or weed control at 400 µg/mL,[5],52%
same,pest or weed control at 10000 µg/mL,[6],45%
CCCCCC=CCC1CCC(=O)O1 (stereo not drawn) [5-oct-2-enyloxolan-2-one],pest or weed control at 16 µg/mL,[4],85%
same,pest or weed control at 400 µg/mL,[5],100%
same,pest or weed control at 10000 µg/mL,[6],96%
CCCCCCCC1CCC(=O)O1 (stereo not drawn) [5-heptyloxolan-2-one],pest or weed control at 16 µg/mL,[4],15%
same,pest or weed control at 400 µg/mL,[5],28%
same,pest or weed control at 10000 µg/mL,[6],70%
"CCCCCCCC1=COC(=O)CC1 [5-heptyl-3,4-dihydro-2H-pyran-2-one]",pest or weed control at 16 µg/mL,[1],0%
same,pest or weed control at 400 µg/mL,[2],95%
same,pest or weed control at 10000 µg/mL,[3],100%
CCCC1CCC(=O)O1 (stereo not drawn) [5-propyloxolan-2-one],pest or weed control at 16 µg/mL,[4],28%
same,pest or weed control at 400 µg/mL,[5],50%
same,pest or weed control at 10000 µg/mL,[6],100%
CC/C=C/CCCCC1CCC(=O)O1 (stereo not drawn) [5-[(E)-oct-5-enyl]oxolan-2-one],pest or weed control at 16 µg/mL,[4],0%
same,pest or weed control at 400 µg/mL,[5],87%
same,pest or weed control at 10000 µg/mL,[6],100%
CCCCCC1C=CC(=O)O1 (stereo not drawn) [2-pentyl-2H-furan-5-one],pest or weed control at 16 µg/mL,[1],0%
same,pest or weed control at 400 µg/mL,[2],53%
same,pest or weed control at 10000 µg/mL,[3],100%
CCC=CC[C@H]1CCCC(=O)O1 [(6R)-6-pent-2-enyloxan-2-one],pest or weed control at 16 µg/mL,"δ-lactones, 0.016 mg/mL",78%
same,pest or weed control at 400 µg/mL,"δ-lactones, 0.4 mg/mL",100%
same,pest or weed control at 10000 µg/mL,"δ-lactones, 10 mg/mL",98%
CCCCCCC1CCC(=O)O1 (stereo not drawn) [5-hexyloxolan-2-one],pest or weed control at 16 µg/mL,[4],0%
same,pest or weed control at 400 µg/mL,[5],69%
same,pest or weed control at 10000 µg/mL,[6],92%
CCC=CCCC1(C)CCC(=O)O1 (stereo not drawn) [5-hex-3-enyl-5-methyloxolan-2-one],pest or weed control at 16 µg/mL,[4],39%
same,pest or weed control at 400 µg/mL,[5],79%
same,pest or weed control at 10000 µg/mL,[6],96%
CCCC=CC1CCC(=O)O1 (stereo not drawn) [5-pent-1-enyloxolan-2-one],pest or weed control at 16 µg/mL,[4],52%
same,pest or weed control at 400 µg/mL,[5],79%
same,pest or weed control at 10000 µg/mL,[6],100%
"C=CC=CC1C(=O)OC1CCCCC (stereo not drawn) [3-buta-1,3-dienyl-4-pentyloxetan-2-one]",pest or weed control at 400 µg/mL,"β- and ε-lactones, 0.4 mg/mL",> 80%
